The values below come from article PMC7580834, “Inhibition mechanism of naphthylphenylamine derivatives acting on the CDC25B dual phosphatase and analysis of the molecular processes involved in the high cytotoxicity exerted by one selected derivative in melanoma cells” (Journal of Enzyme Inhibition and Medicinal Chemistry, 2020).

Test [1] concerns the target T1, CDC25B (Homo sapiens, UniProt P30305).
T1 sequence (P30305 377-551 isoform P30305-2 limits assumed): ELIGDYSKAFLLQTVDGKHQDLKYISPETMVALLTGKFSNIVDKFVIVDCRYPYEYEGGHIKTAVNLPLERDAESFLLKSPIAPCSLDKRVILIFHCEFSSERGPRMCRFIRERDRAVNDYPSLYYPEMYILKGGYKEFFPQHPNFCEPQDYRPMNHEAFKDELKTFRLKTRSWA
As to the kind of experiment: Intrinsic fluorescence quenching of recombinant CDC25B catalytic domain (Stern-Volmer). It is filed as binding. The settings on record: for KSV (Stern-Volmer constant): 0.2 µM wild-type CDC25B, emission 357 nm, 20 °C, no OMFP; for K′D/Ki ratio: K′D of free CDC25B•inhibitor over Ki; for Kd: reciprocal of KSV, inhibitor concentration leading to 50% quenching of CDC25B emission, read-out: K′D of the complex, Free CDC25B•inhibitor. The protocol: (§1) Fluorescence spectra were recorded at 20 °C using a computer-assisted Cary Eclipse spectrofluorimeter (Varian, Palo Alto, CA, USA) equipped with an electronic temperature controller. The excitation wavelength was set at 280 nm and the excitation and emission slits were set at 10 and 20 nm, respectively. A 500 µL final volume of a 0.2 µM solution of CDC25B or CDC25B-C473S dissolved in 20 mM Tris•HCl, pH 7.8, 0.5 mM TCEP was directly prepared in the fluorimetric cuvette in the absence or in the presence of OMFP and/or some NPA derivatives. Serial pre-dilutions of the NPA derivatives or OMFP at increasing concentration were prepared in DMSO or methanol, respectively. Alongside, a convenient amount of the enzyme pre-dilution was prepared just before its usage for the experiment and stored on ice. When the combined effect of NPA derivative and OMFP was investigated, two enzyme pre-dilutions were prepared in the absence or in the presence of 5 µM OMFP. In order to evaluate the specific effect produced by any addition of solvent/ligand on the intrinsic fluorescence of the enzyme, 495 µL of the enzyme pre-dilution were placed in the fluorimetric cuvette and the relative spectrum was recorded; after the addition of 5 µL of each pre-dilution of solvent/ligand and fast mixing, the spectrum was recorded again. This procedure, repeated for each experimental point, allowed a normalisation of the specific effects produced by solvent/ligands. Furthermore, a correction was also applied for the little inner-filter effect due to the absorbance at 280 nm of the NPA derivative used at different concentrations; on the other hand, no correction was necessary for OMFP. All spectra, recorded at a scan speed of 120 nm/min, were normalised and corrected.

Test [2] concerns the target T2, CDC25B (Homo sapiens, UniProt P30305).
T2 sequence (P30305 1-580): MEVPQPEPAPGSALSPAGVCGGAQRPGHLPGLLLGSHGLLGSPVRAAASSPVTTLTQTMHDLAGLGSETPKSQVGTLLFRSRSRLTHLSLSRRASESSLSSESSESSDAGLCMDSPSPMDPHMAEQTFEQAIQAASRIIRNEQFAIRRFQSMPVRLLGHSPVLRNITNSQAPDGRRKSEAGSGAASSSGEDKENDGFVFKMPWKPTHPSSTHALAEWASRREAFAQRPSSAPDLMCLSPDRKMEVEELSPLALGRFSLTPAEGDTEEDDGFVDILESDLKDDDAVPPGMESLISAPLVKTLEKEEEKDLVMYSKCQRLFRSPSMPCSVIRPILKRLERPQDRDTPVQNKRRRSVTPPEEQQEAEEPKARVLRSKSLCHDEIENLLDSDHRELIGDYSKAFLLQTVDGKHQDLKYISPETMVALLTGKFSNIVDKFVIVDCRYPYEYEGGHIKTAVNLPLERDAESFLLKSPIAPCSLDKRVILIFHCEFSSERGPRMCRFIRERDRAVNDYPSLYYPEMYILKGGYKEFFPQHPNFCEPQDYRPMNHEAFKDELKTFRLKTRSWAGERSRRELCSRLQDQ
The test can be described thus: Kinetic studies of CDC25B phosphatase inhibition (OMFP substrate). It counts as biochemical. The settings on record: putative from Lineweaver-Burk plots (ref 18), confirmed by the fluorescence studies of this work.

Test [3] has as its target T3, OMFP-bound CDC25B-C473S (Homo sapiens, UniProt P30305, C487S).
T3 sequence (P30305 370-580 C487S): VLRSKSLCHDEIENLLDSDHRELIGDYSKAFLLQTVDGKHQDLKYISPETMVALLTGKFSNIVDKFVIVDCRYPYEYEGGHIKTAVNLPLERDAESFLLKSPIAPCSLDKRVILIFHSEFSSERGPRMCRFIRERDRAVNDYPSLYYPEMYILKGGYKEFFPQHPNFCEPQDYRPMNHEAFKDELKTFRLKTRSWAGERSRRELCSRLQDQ
As to the kind of experiment: Intrinsic fluorescence quenching of CDC25B-C473S in the presence of 5 µM OMFP (Stern-Volmer). It counts as binding. The settings on record: reciprocal of KSV; presence of 5 µM OMFP; read-out: K′D of the complex, OMFP-bound CDC25B-C473S•inhibitor.
Text: (§2) The mutant form of CDC25B, carrying the C473S replacement (CDC25B-C473S), was obtained through site-directed mutagenesis of the CDC25B catalytic segment cloned in pET28a-CDC25B-cd. To this aim, the QuikChange site-directed mutagenesis kit (Stratagene, La Jolla, CA, USA) and the forward and reverse primers for C473S replacement (5′d-[…]-3′ and 5′d-[…]-3′) were used. Positive clones were obtained, and the nucleotide sequencing of the mutagenised segment excluded the presence of undesired mutations. The new vector was called pET28a-CDC25B-C473S-cd. The expression of the new vector and the purification of the recombinant form of CDC25B-C473S catalytic domain were carried out as previously reported for wild-type CDC25B catalytic domain[18], and similar yields were obtained. As expected, the mutant enzyme was unable to hydrolyse the synthetic substrate OMFP, when its activity was checked with the fluorimetric assay method previously described.
as §1

The next test concerns some tumour cells. Also noted: method as in PMID 22524450. The settings on record: 200 µM; cited from earlier work.
Test [4] addresses T2, CDC25B. The settings on record: cited from earlier work.
In another test the test system is A375 cells. The test can be described thus: Apoptosis by cytofluorimetry after PI incorporation (subdiploid DNA content). The settings on record: 100 µM Z-VAD-FMK plus 10 µM 4a, 48 h. It is filed as cell-based, human. The procedure: (§3) The human melanoma cell lines A375 and A2058, deriving from a primary tumour or lymph nodal metastasis, respectively, were kindly provided from CEINGE (Naples, Italy). Cells were grown in DMEM supplemented with 10% FBS, 2 mM L-glutamine, 100 IU/mL penicillin G and 100 µg/mL streptomycin in humidified incubator at 37 °C under 5% CO2 atmosphere. The cell line BJ-5ta, a human skin fibroblast immortalised with the human telomerase reverse transcriptase[30] was cultured in a 4:1 mixture of DMEM and Medium 199 supplemented with 4 mM L-glutamine, 4.5 g/L glucose, 1.5 g/L sodium bicarbonate, 10% FBS, 100 IU/mL penicillin G, […] streptomycin in humidified incubator at 37 °C under 5% CO2 atmosphere. All cells were split and seeded every 3 days and used during their exponential phase of growth. Cell treatments were usually carried out after 24 h from plating.
(§4) Cytofluorimetric analysis was used to determine the number of apoptotic nuclei essentially as previously described. Briefly, cells were seeded into six-well plates at 3 × 10^5 cells/well and after 24 h were treated with 4a or 0.5% (v/v) DMSO and incubated for different times. Then, cells were harvested with trypsin, and centrifuged, and the pellets were resuspended in 200 µL of a hypotonic lysis solution containing 50 µg/mL PI. After incubation at 4 °C for 30 min, cells were analysed with a FACScan flow cytometer (Becton Dickinson, Franklin Lakes, NJ, USA) to evaluate the presence of nuclei with DNA content lower than diploid.

Another test concerns A2058 cells. The test is described as above. The settings on record: 100 µM Z-VAD-FMK plus 10 µM 4a, 48 h. It counts as cell-based, human. The protocol: as §3, §4
Test [5] concerns OMFP-bound CDC25B-C473S. The test can be described thus: Intrinsic fluorescence quenching of CDC25B-C473S in the presence of 5 µM OMFP (Stern-Volmer). It is filed as binding. The settings on record: for KSV (Stern-Volmer constant): 0.2 µM CDC25B-C473S, in the presence of 5 µM OMFP; for K′D/Ki ratio: K′D of OMFP-bound CDC25B-C473S•inhibitor over Ki.
Text: as §2, §1

Where two headings read alike, the source gives them in different places. Residues, ends and D or L forms follow the SMILES beside them. *: point of attachment. Cbz = O=C(OCc1ccccc1)*; CH2F = FC*

`O=C(O)c1ccccc1Nc1ccc(O)c2ccccc12` [6e]: on CDC25B [1], the “KSV (Stern-Volmer constant)” value was 0.035 µM⁻¹, the “K′D/Ki ratio” value was 10.6 and the Kd came out at 28.6 µM. Moreover, the Inhibition mechanism entry on CDC25B [2] was “noncompetitive”.

For the molecule `Nc1ccc(Nc2cccc(C(=O)O)c2)c2ccccc12` [7i], at CDC25B [1], the “KSV (Stern-Volmer constant)” value came to 0.069 µM⁻¹, the “K′D/Ki ratio” value was found to be 10.4 and the Kd came to 14.5 µM. Further, the Inhibition mechanism entry at CDC25B [2] was “noncompetitive”.

For `Nc1cccc2c(Nc3cccc(C(=O)O)c3)cccc12` [7j], at CDC25B [1], the “KSV (Stern-Volmer constant)” value turned out to be 0.129 µM⁻¹, the “K′D/Ki ratio” value came out at 9.7 and the Kd stood at 7.8 µM. Also, the Inhibition mechanism entry on CDC25B [2] is “noncompetitive”. Moreover, at OMFP-bound CDC25B-C473S [3], the Kd was found to be 15.1 µM.

As for `O=C(O)c1ccc(C(=O)c2ccccc2C(=O)O)cc1C(=O)O` [NSC28620], the “cell growth rate of some tumour cells” value in the test on some tumour cells is reported as “reduced”. Also, on CDC25B [4] (lead compound), the Inhibition mechanism result is on record as “reversible competitive”.

Regarding `COc1ccc2c(c1)Oc1cc(OP(=O)(O)O)ccc1C21OC(=O)c2ccccc21` (stereo not drawn) [OMFP, O-methylfluorescein phosphate], at CDC25B [4] (read-out: KM of the wild type CDC25B for the substrate), the Km (usually the substrate concentration at which the rate is half of its maximum) is 2.7 ± 0.2 µM.

As to `COC(=O)C[C@H](NC(=O)[C@H](C)NC(=O)[C@@H](NC(=O)OCc1ccccc1)C(C)C)C(=O)CF` [Z-VAD-FMK, reference compound] (Cbz-Val-Ala-Asp(OMe)-CH2F), the “apoptosis level induced by 4a upon exposure to the caspase inhibitor” value in the test on A375 cells and with A2058 cells was “partial but significant reduction” throughout.

As to `CCOC(=O)c1ccccc1Nc1cccc2ccccc12` [compound 3], at CDC25B [1], the “KSV (Stern-Volmer constant)” value worked out at 0.011 µM⁻¹ and the Kd was greater than 50 µM. The Inhibition mechanism result on CDC25B [2] is given as “uncompetitive”. The Kd at OMFP-bound CDC25B-C473S [3] turned out to be 24 µM. In the test on OMFP-bound CDC25B-C473S [5], the “KSV (Stern-Volmer constant)” value was determined as 0.042 µM⁻¹ and the “K′D/Ki ratio” value is 8.6.

Turning to `CCOC(=O)c1cccc(Nc2cccc3ccccc23)c1` [compound 4], on CDC25B [1], the “KSV (Stern-Volmer constant)” value is 0.016 µM⁻¹ and the Kd is greater than 50 µM. Further, the Inhibition mechanism result on CDC25B [2] is recorded as “uncompetitive”. Further, the Kd on OMFP-bound CDC25B-C473S [3] came to 43 µM. For the same molecule, in the test with OMFP-bound CDC25B-C473S [5], the “KSV (Stern-Volmer constant)” value amounted to 0.023 µM⁻¹ and the “K′D/Ki ratio” value came to 5.9.
